Measured values taken from patent US20070021434A1, “NON-NUCLEOSIDE ANTI-HEPACIVIRUS AGENTS AND USES THEREOF” (Migenix Inc., priority 2005, published 2007).
Peptide text beside a SMILES is read from it. * marks the point of attachment. Fmoc = O=C(OCC1c2ccccc2-c2ccccc21)*; Boc = CC(C)(C)OC(=O)*

molecular target: HCV RdRp (NS5B) (UniProt P26663); assay type: biochemical, hepatitis C virus
Sequence (P26663 whole entry, looked up): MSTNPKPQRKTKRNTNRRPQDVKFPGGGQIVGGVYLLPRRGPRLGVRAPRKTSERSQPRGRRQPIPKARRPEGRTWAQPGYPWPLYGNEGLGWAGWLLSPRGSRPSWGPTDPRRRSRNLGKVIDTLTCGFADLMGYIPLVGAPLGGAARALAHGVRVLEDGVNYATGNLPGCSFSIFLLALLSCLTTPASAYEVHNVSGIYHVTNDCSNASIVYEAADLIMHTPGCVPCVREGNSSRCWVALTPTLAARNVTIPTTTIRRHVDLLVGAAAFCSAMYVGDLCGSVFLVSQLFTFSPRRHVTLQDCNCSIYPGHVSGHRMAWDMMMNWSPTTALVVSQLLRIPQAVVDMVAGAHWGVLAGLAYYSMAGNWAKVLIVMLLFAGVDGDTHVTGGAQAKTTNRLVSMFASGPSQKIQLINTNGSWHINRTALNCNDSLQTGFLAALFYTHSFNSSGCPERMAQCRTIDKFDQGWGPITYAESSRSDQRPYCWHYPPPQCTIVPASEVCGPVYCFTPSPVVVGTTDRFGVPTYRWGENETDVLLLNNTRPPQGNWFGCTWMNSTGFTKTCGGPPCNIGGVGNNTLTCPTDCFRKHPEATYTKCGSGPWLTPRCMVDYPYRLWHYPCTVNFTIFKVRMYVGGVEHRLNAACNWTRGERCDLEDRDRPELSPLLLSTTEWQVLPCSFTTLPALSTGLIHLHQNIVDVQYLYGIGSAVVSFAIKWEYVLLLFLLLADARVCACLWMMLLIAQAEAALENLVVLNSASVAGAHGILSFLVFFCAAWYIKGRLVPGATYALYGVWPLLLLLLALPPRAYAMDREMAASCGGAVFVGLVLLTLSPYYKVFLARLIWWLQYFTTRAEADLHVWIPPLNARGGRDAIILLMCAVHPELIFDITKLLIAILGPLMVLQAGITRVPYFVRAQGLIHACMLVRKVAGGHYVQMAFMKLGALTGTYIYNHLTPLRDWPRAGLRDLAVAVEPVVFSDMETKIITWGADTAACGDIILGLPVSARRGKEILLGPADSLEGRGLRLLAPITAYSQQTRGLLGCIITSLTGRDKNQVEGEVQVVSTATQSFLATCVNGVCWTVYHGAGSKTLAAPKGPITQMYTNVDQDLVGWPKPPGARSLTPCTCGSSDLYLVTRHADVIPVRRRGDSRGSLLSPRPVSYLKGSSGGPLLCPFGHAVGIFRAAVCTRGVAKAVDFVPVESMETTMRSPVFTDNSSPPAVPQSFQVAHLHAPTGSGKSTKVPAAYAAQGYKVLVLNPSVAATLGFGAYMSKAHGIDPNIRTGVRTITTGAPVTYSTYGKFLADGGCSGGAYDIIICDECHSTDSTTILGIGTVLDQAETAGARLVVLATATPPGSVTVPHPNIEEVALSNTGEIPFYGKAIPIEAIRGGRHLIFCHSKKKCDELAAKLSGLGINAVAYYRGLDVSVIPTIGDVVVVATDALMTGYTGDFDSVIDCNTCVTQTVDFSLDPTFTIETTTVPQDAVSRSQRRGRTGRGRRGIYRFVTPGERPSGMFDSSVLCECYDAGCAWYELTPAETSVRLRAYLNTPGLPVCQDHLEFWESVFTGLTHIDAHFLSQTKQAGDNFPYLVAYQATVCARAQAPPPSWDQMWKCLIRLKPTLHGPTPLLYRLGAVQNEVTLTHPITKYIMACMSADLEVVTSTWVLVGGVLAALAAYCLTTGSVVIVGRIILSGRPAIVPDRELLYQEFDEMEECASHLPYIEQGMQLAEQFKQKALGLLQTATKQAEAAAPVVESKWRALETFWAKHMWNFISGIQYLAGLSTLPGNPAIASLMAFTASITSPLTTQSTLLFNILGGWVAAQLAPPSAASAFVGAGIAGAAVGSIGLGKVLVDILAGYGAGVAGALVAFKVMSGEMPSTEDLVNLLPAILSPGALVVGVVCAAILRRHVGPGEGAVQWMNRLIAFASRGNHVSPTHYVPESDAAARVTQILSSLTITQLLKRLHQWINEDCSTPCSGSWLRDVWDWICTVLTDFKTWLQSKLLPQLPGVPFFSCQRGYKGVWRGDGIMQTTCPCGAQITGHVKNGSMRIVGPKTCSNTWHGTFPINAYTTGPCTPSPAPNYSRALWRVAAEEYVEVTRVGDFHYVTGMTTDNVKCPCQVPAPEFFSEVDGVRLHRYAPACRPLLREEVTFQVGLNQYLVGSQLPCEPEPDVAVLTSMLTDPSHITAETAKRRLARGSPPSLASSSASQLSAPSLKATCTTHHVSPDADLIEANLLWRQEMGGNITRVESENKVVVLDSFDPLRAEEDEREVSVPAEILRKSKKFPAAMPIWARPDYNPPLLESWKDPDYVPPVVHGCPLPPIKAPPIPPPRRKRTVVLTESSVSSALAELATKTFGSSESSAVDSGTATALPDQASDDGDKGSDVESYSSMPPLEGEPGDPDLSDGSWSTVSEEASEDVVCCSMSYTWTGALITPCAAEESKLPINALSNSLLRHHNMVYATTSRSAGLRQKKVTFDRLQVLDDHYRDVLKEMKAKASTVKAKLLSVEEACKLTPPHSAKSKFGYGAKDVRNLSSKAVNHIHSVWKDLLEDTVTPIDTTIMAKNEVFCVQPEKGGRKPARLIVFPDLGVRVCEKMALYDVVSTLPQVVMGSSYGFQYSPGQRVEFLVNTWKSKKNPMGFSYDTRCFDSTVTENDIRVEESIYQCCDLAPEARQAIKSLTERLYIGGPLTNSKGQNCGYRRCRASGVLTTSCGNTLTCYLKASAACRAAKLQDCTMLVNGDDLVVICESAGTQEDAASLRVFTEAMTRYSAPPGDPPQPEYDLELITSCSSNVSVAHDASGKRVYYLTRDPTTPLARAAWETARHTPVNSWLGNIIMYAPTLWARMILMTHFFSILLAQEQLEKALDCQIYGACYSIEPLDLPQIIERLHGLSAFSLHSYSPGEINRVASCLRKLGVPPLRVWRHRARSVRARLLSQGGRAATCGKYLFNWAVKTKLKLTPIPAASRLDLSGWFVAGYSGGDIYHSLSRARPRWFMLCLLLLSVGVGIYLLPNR

Row | SMILES | IC50
1 | Cc1ccc(NC(=O)C(CCCNC(N)=O)NC(=O)OCC2c3ccccc3-c3ccccc32)cc1 [Compound 113, (S)-(1-P-TOLYLCARBAMOYL-4-UREIDO-BUTYL)-CARBAMIC ACID 9H-FLUOREN-9-YLMETHYL ESTER] | > 50 µM
2 | O=C(CC1CNCCN1C(=O)NCc1ccccc1)Nc1ccc(C2CCCCC2)cc1 (centres unmarked) [Compound 158, 2-[(4-CYCLOHEXYL-PHENYLCARBAMOYL)-METHYL]-PIPERAZINE-1-CARBOXYLIC ACID BENZYLAMIDE] | 10 to 50 µM
3 | NCCC[C@H](NC(=O)OCC1c2ccccc2-c2ccccc21)C(=O)Nc1ccc(C2CCCCC2)cc1 [Compound 200, (S)-[4-AMINO-1-(4-CYCLOHEXYL-PHENYLCARBAMOYL)-BUTYL]-CARBAMIC ACID 9H-FLUOREN-9-YLMETHYL ESTER] | < 10 µM
4 | NCCCC[C@H](NC(=O)OCC1c2ccccc2-c2ccccc21)C(=O)NCCc1c[nH]c2ccccc12 [Compound 57, (S)-{5-AMINO-1-[2-(1H-INDOL-3-YL)-ETHYLCARBAMOYL]-PENTYL}-CARBAMIC ACID 9H-FLUOREN-9-YLMETHYL ESTER] | > 50 µM
5 | CCCCOc1ccc(NC(=O)N[C@@H](CCCCN)C(=O)Nc2ccc(C)cc2)cc1 [Compound 244, (S)-6-AMINO-2-[3-(4-BUTOXY-PHENYL)-UREIDO]-HEXANOIC ACID P-TOLYLAMIDE] | > 50 µM
6 | NCCCCC(NC(=O)OCC1c2ccccc2-c2ccccc21)C(=O)NC1CCCCC1 (stereo in doubt) [Compound 22, (S)-(5-AMINO-1-CYCLOHEXYLCARBAMOYL-PENTYL)-CARBAMIC ACID 9H-FLUOREN-9-YLMETHYL ESTER] | 10 to 50 µM
7 | Cc1ccc(NC(=O)C(CCCCN)NC(=O)OCC2c3ccccc3-c3ccccc32)cn1 (centres unmarked) [Compound 294, [5-AMINO-1-(6-METHYL-PYRIDIN-3-YLCARBAMOYL)-PENTYL]-CARBAMIC ACID 9H-FLUOREN-9-YLMETHYL ESTER] | > 50 µM
8 | Cc1ccc(NC(=O)C2(NC(=O)OCC3c4ccccc4-c4ccccc43)CCNCC2)cc1 [Compound 138, (4-P-TOLYLCARBAMOYL-PIPERIDIN-4-YL)-CARBAMIC ACID 9H-FLUOREN-9-YLMETHYL ESTER] | > 50 µM
9 | NCCCC[C@H](NC(=O)OCC1c2ccccc2-c2ccccc21)C(=O)Nc1ccc(C2CCCCC2)cc1 [Compound 107, (S)-[5-AMINO-1-(4-CYCLOHEXYL-PHENYLCARBAMOYL)-PENTYL]-CARBAMIC ACID 9H-FLUOREN-9-YLMETHYL ESTER] | < 10 µM
10 | Cc1ccc(NC(=O)[C@H](CCCCN)NC(=O)CNCc2ccc(Cl)cc2)cc1 [Compound 349, (S)-6-AMINO-2-[2-(4-CHLORO-BENZYLAMINO)-ACETYLAMINO]-HEXANOIC ACID P-TOLYLAMIDE] | > 50 µM
11 | Cc1ccc(NC(=O)[C@H](CCCCN)NC(=O)NC2c3ccccc3-c3ccccc32)cc1 [Compound 126, (S)-6-AMINO-2-[3-(9H-FLUOREN-9-YL)-UREIDO]-HEXANOIC ACID P-TOLYLAMIDE] | < 10 µM
12 | NCCC[C@@H](NC(=O)OCC1c2ccccc2-c2ccccc21)C(=O)Nc1ccc(C2CCCCC2)cc1 [Compound 198, (R)-[4-AMINO-1-(4-CYCLOHEXYL-PHENYLCARBAMOYL)-BUTYL]-CARBAMIC ACID 9H-FLUOREN-9-YLMETHYL ESTER] | < 10 µM
13 | NCCCC[C@H](NC(=O)OCC1c2ccccc2-c2ccccc21)C(=O)Nc1cccc(OCc2ccccc2)c1 [Compound 211, (S)-[5-AMINO-1-(3-BENZYLOXY-PHENYLCARBAMOYL)-PENTYL]-CARBAMIC ACID 9H-FLUOREN-9-YLMETHYL ESTER] | 10 to 50 µM
14 | COC(=O)[C@H](Cc1c[nH]c2ccccc12)NC(=O)[C@H](CCCCNC(=O)OC(C)(C)C)NC(=O)OCC1c2ccccc2-c2ccccc21 [Compound 30, (S)-2-[6-TERT-BUTOXYCARBONYLAMINO-2-(S)-((9H-FLUOREN-9-YLMETHOXYCARBONYL)AMINO)-HEXANOYL-AMINO]-3-(1H-INDOL-3-YL)-PROPIONIC ACID METHYL ESTER] (Fmoc-Lys(Boc)-Trp-OMe) | > 50 µM
15 | Cc1cc2cc(NC(=O)[C@H](CCNC(=O)CN)NC(=O)Nc3ccc(OCc4ccccc4)cc3)ccc2[nH]1 [Compound 241, (S)-4-(2-AMINO-ACETYLAMINO)-2-[3-(4-BENZYLOXY-PHENYL)-UREIDO]-N-(2-METHYL-1H-INDOL-5-YL)-BUTYRAMIDE] | < 10 µM
16 | NCCCC[C@H](NC(=O)c1cccc2ccccc12)C(=O)Nc1ccc(CN(C(=O)c2ccco2)C2CCCCC2)cc1 [Compound 24, (S)-FURAN-2-CARBOXYLIC ACID (4-{6-AMINO-2-[(NAPHTHALENE-1-CARBONYL)-AMINO]-HEXANOYLAMINO}-BENZYL)-CYCLOHEXYL-AMIDE] | 10 to 50 µM
17 | N[C@@H](Cc1ccccc1)C(=O)Nc1ccc(CN(C(=O)c2ccco2)C2CCCCC2)cc1 [Compound 10, (S)-FURAN-2-CARBOXYLIC ACID [4-(2-AMINO-3-PHENYL-PROPIONYLAMINO) -BENZYL]-CYCLOHEXYL-AMIDE] | > 50 µM
18 | Cc1ccc(COc2ccc(NC(=O)NC(CCCCN)C(=O)Nc3ccc(C)cc3)cc2)cc1 [Compound 301, (S)-6-AMINO-2-{3-[4-(4-METHYL-BENZYLOXY)-PHENYL]-UREIDO}-HEXANOIC ACID P-TOLYLAMIDE] | > 50 µM
19 | Cc1ccc(NC(=O)[C@H](CCCCN)NC(=O)OCC2c3ccccc3-c3ccccc32)cn1 [Compound 229, (S)-[5-AMINO-1-(6-METHYL-PYRIDIN-3-YLCARBAMOYL)-PENTYL]-CARBAMIC ACID 9H-FLUOREN-9-YLMETHYL ESTER] | > 50 µM

Row | SMILES | IC50
20 | NCCCCCCNC(=O)C(NC(=O)Nc1ccc(OCc2ccccc2)cc1)c1ccccc1 [Compound 320, (R)-NR-(6-AMINO-HEXYL)-2-[3-(4-BENZYLOXY-PHENYL)-UREIDO]-2-PHENYL-ACETAMIDE] | < 10 µM
21 | CCCC[C@H](NC(=O)OCC1c2ccccc2-c2ccccc21)C(=O)Nc1ccc(CN(C(=O)c2ccco2)C2CCCCC2)cc1 [Compound 37, (S)-[1-(4-{[CYCLOHEXYL-(FURAN-2-CARBONYL)-AMINO]-METHYL}-PHENYLCARBAMOYL)-PENTYL]-CARBAMIC ACID 9H-FLUOREN-9-YLMETHYL ESTER] | > 50 µM
22 | Cc1ccc(NC(=O)CC2CN(C(=O)C(C)N)CCN2C(=O)OCC2c3ccccc3-c3ccccc32)cc1 (centres unmarked) [Compound 185, 4-(R-2-AMINO-PROPIONYL)-2-(P-TOLYLCARBAMOYL-METHYL)-PIPERAZINE-1-CARBOXYLIC ACID 9H-FLUOREN-9-YLMETHYL ESTER] | > 50 µM
23 | Cc1ccc(NC(=O)C(CCCCN)NC(=O)c2ccc3c4c(cccc24)CC3)cc1 [Compound 67, (S)-ACENAPHTHENE-5-CARBOXYLIC ACID (5-AMINO-1-P-TOLYLCARBAMOYL-PENTYL)-AMIDE] | > 50 µM
24 | Cc1ccc(NC(=O)CN(CCCCN)C(=O)Nc2ccc(OCc3ccccc3)cc2)cc1 [Compound 278, 2-[1-(4-AMINO-BUTYL)-3-(4-BENZYLOXY-PHENYL)-UREIDO]-N-P-TOLYL-ACETAMIDE] | 10 to 50 µM
25 | Cc1ccc(NC(=O)C(CCC(=O)O)NC(=O)OCC2c3ccccc3-c3ccccc32)cc1 [Compound 373, (R)-4-(9H-FLUOREN-9-YLMETHOXYCARBONYLAMINO)-4-P-TOLYLCARBAMOYL-BUTYRIC ACID] | > 50 µM
26 | COc1ccc(-c2ccccc2)cc1NC(=O)NC(CCCCN)C(=O)Nc1ccc(C)cc1 [Compound 93, (S)-6-AMINO-2-[3-(4-METHOXY-BIPHENYL-3-YL)-UREIDO]-HEXANOIC ACID P-TOLYLAMIDE] | > 50 µM
27 | Cc1ccc(NC(=O)[C@H](CCCCN)NC(=O)NCc2ccc(Cl)cc2)cc1 [Compound 167, (S)-6-AMINO-2-[3-(4-CHLORO-BENZYL)-UREIDO]-HEXANOIC ACID P-TOLYLAMIDE] | > 50 µM
28 | Cc1ccc(NC(=O)C(CCCCN)NC(=O)NC(C)c2cccc3ccccc23)cc1 [Compound 97, (S,S)-6-AMINO-2-[3-(1-NAPHTHALEN-1-YL-ETHYL)-UREIDO]-HEXANOIC ACID P-TOLYLAMIDE] | > 50 µM
29 | Cc1ccc(NC(=O)[C@H](CCCCN)NC(=O)Nc2ccc(OCc3ccc(F)c(F)c3)cc2)cc1 [Compound 288, (S)-6-AMINO-2-{3-[4-(3,4-DIFLUORO-BENZYLOXY)-PHENYL]-UREIDO}-HEXANOIC ACID P-TOLYLAMIDE] | 10 to 50 µM
30 | Cc1ccc(NC(=O)C(CCN)NC(=O)OCC2c3ccccc3-c3ccccc32)cc1 [Compound 400, (R)-(3-AMINO-1-P-TOLYLCARBAMOYL-PROPYL)-CARBAMIC ACID 9H-FLUOREN-9-YLMETHYL ESTER] | > 50 µM
31 | NCCCC[C@H](NC(=O)Nc1ccc(OCc2ccccc2)cc1)C(=O)NC1CCCC1 [Compound 255, (S)-6-AMINO-2-[3-(4-BENZYLOXY-PHENYL)-UREIDO]-HEXANOIC ACID CYCLOPENTYLAMIDE] | 10 to 50 µM
32 | COc1ccc(CNCC(=O)N[C@@H](CCCCN)C(=O)Nc2ccc(C)cc2)cc1 [Compound 343, (S)-6-AMINO-2-[2-(4-METHOXY-BENZYLAMINO)-ACETYLAMINO]-HEXANOIC ACID P-TOLYLAMIDE] | > 50 µM
33 | Cc1ccc(NC(=O)[C@H](CCCCN)NC(=O)CNc2ccc(Cl)cc2)cc1 [Compound 363, (S)-6-AMINO-2-[2-(4-CHLORO-PHENYLAMINO)-ACETYLAMINO]-HEXANOIC ACID P-TOLYLAMIDE] | > 50 µM
34 | Cc1ccc(NC(=O)C(CO)NC(=O)OCC2c3ccccc3-c3ccccc32)cc1 [Compound 375, (R)-(2-HYDROXY-1-P-TOLYLCARBAMOYL-ETHYL)-CARBAMIC ACID 9H-FLUOREN-9-YLMETHYL ESTER] | > 50 µM
35 | CCNCC(=O)N1CCN(C(=O)OCC2c3ccccc3-c3ccccc32)C(CC(=O)Nc2ccc(C)cc2)C1 (centres unmarked) [Compound 187, 4-(2-ETHYLAMINO-ACETYL)-2-(P-TOLYLCARBAMOYL-METHYL)-PIPERAZINE-1-CARBOXYLIC ACID 9H-FLUOREN-9-YLMETHYL ESTER] | 10 to 50 µM
36 | Cc1ccc(NC(=O)C(CN)NC(=O)OCC2c3ccccc3-c3ccccc32)cc1 [Compound 103, (S)-(2-AMINO-1-P-TOLYLCARBAMOYL-ETHYL)-CARBAMIC ACID 9H-FLUOREN-9-YLMETHYL ESTER] | > 50 µM
37 | Cc1ccc(NC(=O)[C@H](CCCCN)NC(=O)COc2ccccc2)cc1 [Compound 328, (S)-^6-AMINO-^2-(^2-PHENOXY-ACETYLAMINO)-HEXANOIC ACID P-TOLYLAMIDE] | > 50 µM
38 | Cc1ccc(NC(=O)[C@H](CCCCN)NC(=O)Nc2ccc(OCc3c(F)cccc3F)cc2)cc1 [Compound 287, (S)-6-AMINO-2-{3-[4-(2,6-DIFLUORO-BENZYLOXY)-PHENYL]-UREIDO}-HEXANOIC ACID P-TOLYLAMIDE] | 10 to 50 µM
